The target of this assay is T1, human recombinant adrenergic α2B receptor (Homo sapiens, UniProt P18089).
T1 construct: expressed in transfected cells; host or cells: CHO-K1
T1 sequence (P18089 1-450): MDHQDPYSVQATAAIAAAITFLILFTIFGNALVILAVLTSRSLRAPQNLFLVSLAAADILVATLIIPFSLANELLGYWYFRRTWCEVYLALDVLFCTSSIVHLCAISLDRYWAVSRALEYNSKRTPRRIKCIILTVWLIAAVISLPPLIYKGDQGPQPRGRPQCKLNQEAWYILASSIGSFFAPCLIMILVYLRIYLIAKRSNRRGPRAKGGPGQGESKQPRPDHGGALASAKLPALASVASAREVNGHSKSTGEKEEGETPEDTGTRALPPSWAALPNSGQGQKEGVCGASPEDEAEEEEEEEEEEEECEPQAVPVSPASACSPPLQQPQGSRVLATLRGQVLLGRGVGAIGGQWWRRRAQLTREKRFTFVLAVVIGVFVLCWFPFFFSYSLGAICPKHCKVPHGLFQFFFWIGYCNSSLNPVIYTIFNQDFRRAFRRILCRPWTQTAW
As to the kind of experiment: Radioligand binding, adrenergic α2B receptor ([3H]Rauwolscine). The following applies: CHO-K1 cells; for inhibition at 0.03 µM / inhibition at 0.1 µM: read-out: Percentage inhibition of ligand binding, Adrenergic α2B. The gist of the method: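 Percent inhibition of specific [3H]Rauwolscine (2.5 nM) binding, compounds at ≤1 μM, 1% DMSO vehicle, 10 μM prazosin defining nonspecific. Receptor: human α2B expressed in CHO-K1 cells, 60 min incubation at 25 °C in Tris-HCl pH 7.4 buffer (MgCl2, EDTA, BSA); filtered, washed, counted.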

With `Cc1ccc2c(c1)c1c(n2-c2ccccc2-c2cccn2C)CCN(C)C1` [Compound No. 100, 2,8-dimethyl-5-(2-(1-methyl-1H-pyrrol-2-yl)phenyl)-2,3,4,5-tetrahydro-1H-pyrido[4,3-b]indole], the inhibition at 0.03 µM (0.03 μM compound) stood at 103%. Also, under “0.1 μM compound”, the “Percentage inhibition of ligand binding, Adrenergic α2B” value (“Percentage inhibition” below) is recorded as 109% and the inhibition at 0.1 µM came out at 99%.

On to `Cc1ccc2c(c1)c1c(n2-c2cscc2-c2ccc(C)s2)CCN(C)C1` [Compound No. 79], for which, under “0.03 μM compound”, the inhibition at 0.03 µM is 102%. Also, for the setting “0.1 μM compound”, the inhibition at 0.1 µM is 104%.

Consider `Cc1ccc2c(c1)c1c(n2-c2ccccc2-c2ccc3c(ccn3C)c2)CCN(C)C1` [Compound No. 85, 2,8-dimethyl-5-(2-(1-methyl-1H-indol-5-yl)phenyl)-2,3,4,5-tetrahydro-1H-pyrido[4,3-b]indole], for which the inhibition at 0.03 µM (0.03 μM compound) is 89%. Moreover, under “0.1 μM compound”, the “Percentage inhibition” value was 102% and the inhibition at 0.1 µM came to 98%.

`Cc1ccc2c(c1)c1c(n2-c2cscc2-c2ccc3c(ccn3C)c2)CCN(C)C1` [Compound 33]: where the note is “0.03 μM compound”, the “Percentage inhibition” value stood at 102% and the inhibition at 0.03 µM worked out at 100%. In addition, under “0.1 μM compound”, the inhibition at 0.1 µM came out at 95%.

Turning to `Cc1ccc2c(c1)c1c(n2-c2cscc2-c2ccc(S(C)(=O)=O)cc2)CCN(C)C1` [Compound No. 76], the inhibition at 0.03 µM (0.03 μM compound) amounted to 89%. Under “0.1 μM compound”, the “Percentage inhibition” value amounted to 100% and the inhibition at 0.1 µM was found to be 94%.

On to `Cc1ccc2c(c1)c1c(n2-c2cscc2-c2ccc3cnccc3c2)CCN(C)C1` [Compound No. 68], for which the inhibition at 0.03 µM (0.03 μM compound) is 71%. For the same compound, under “0.1 μM compound”, the “Percentage inhibition” value is 93% and the inhibition at 0.1 µM turned out to be 86%.

`Cc1csc(-c2cscc2-n2c3c(c4cc(C)ccc42)CN(C)CC3)c1` [Compound 50]: the inhibition at 0.03 µM (0.03 μM compound) came to 97%. Besides, the inhibition at 0.1 µM (0.1 μM compound) turned out to be 103%.

With `COc1ccc(-c2cscc2-n2c3c(c4cc(C)ccc42)CN(C)CC3)cc1` [Compound 37], the inhibition at 0.03 µM (0.03 μM compound) was 104%. Also, where the note is “0.1 μM compound”, the “Percentage inhibition” value is recorded as 104% and the inhibition at 0.1 µM stood at 96%.
